From US9012397B2 (priority 2011, dated 2015) come the findings set out here.

The test has as its system unidentified sting. More on the design: species or system human. Particulars: in vivo.

Take pGLU-ASN-TRP-LYS-C8 [ZEP3]: the clinical outcome is “relief from the itching sensation within a number of minutes” and the “time until redness disappeared” value worked out at 2 days.
